Results from article PMC12415213, “A genome-scale drug discovery pipeline uncovers therapeutic targets and a unique p97 allosteric binding site in Schistosoma mansoni” (Proceedings of the National Academy of Sciences of the …, 2025).
Read-outs that look alike come from different tables or passages of the source.

Legend:
[1] = system: HepG2 cells; experiment: HepG2 cytotoxicity assay (Cell Titer Glo 2.0); type: cell-based, Homo sapiens; conditions: 72 h
[2] = system: K48 polyubiquitinated proteins in adult S. mansoni; experiment: Western blot of K48 polyubiquitinated proteins in lysate of drug-treated worms; type: cell-based, Schistosoma mansoni; conditions: adult worm lysate after 48 h of treatment
Experimental: (§1) DMSO). All selected compounds were obtained from commercial vendors (Medchemexpress, Selleck Chemicals, Sigma-Aldrich, ApexBio, Tocris, Santa Cruz Biotechnology, and Cayman Chemical Company) (Dataset S4) with […]
the activity of the desired compounds. Roughly 5 adult worm pairs were placed in 3mL Basch medium in a 12-well culture vessel, and incubated at 37° C, 5% CO2 for the length of the experiment. […]
(§2) For drug treatment studies, 10 male adult worms (single or paired with females) were supplemented with either 0.1% DMSO or inhibitor (0.1% DMSO final). For all experiments assessing on-target effects of potential parasite […]
(§3) After 48 hr, male parasites were separated […]
(§4) further processing. Male worm samples were homogenized with a pestle in 50 µL lysis buffer containing 2X […]
(Roche, cOmplete Mini, EDTA-free Tablets) and 10 mM DTT. The lysates were then sonicated on high for 5 min (30 sec on, 30 sec off) using a Bioruptor UCD-200. Lysates were centrifuged for 5 min at 10,000 g to remove […]
debris. Total protein was measured using the Detergent Compatible Bradford Assay (Pierce). 50 µg of protein samples denatured in SDS Sample buffer (95°C for 5 min) were separated on a Bio-Rad 4-20% TGX Stain-Free gel along with Precision Plus Protein Dual Color Standards (Bio-Rad) as a marker. Proteins were then transferred to a nitrocellulose membrane (Bio-Rad). The membrane was blocked in a 1:5 solution of Li-Cor Odyssey Blocking buffer in PBST for 1 hr before being immunoblotted overnight at 4°C with 1:500 K48-linkage Specific […]
(1:10,000) (Developmental Studies Hybridoma Bank, JLA20) diluted in a 1:5 solution of Li-Cor Odyssey Blocking buffer in PBST. The membrane was washed 3x in TBST and then incubated in 1:5 Li-Cor Odyssey […]
in TBST 3x before being imaged on a LiCor Odyssey Infrared Imager. […]

[3] = system: adult S. mansoni; experiment: Dose-response of compounds on adult worms (attachment to culture substrate, EC50); type: cell-based, Schistosoma mansoni
Experimental: as §1
the activity of the desired compounds. Roughly 5 adult worm pairs were placed in 3mL Basch medium in a 12-well culture vessel, and incubated at 37° C, 5% CO2 for the length of the experiment. Compound was administered at D0, D1, and D2, media and drug refreshed every 24 hr. Worms were then allowed to remain in culture until D5, where a final assessment of worm attachment to tissue culture substate was made by light microscopy.
Observations on movement and morphology were also recorded. A negative control (0.1% DMSO) and positive control (PZQ; 10 µM in 0.1% DMSO) were included in each experiment, and each experiment was repeated in triplicate for validation. For compounds that caused complete detachment in replicate experiments, the treatment was expanded to three concentrations (10 µM, 5 µM, and 1 µM) following the same treatment schedule and controls as detailed above.
Each titration experiment was performed in triplicate according to the treatment regimen described above, using DMSO and PZQ as appropriate controls. Morphologies and motility were assessed by light microscopy, and dose-response curves were calculated using the primary readout of parasite attachment to tissue culture substrate in GraphPad Prism.
as §2, §3, §4
(Roche, cOmplete Mini, EDTA-free Tablets) and 10 mM DTT. The lysates were then sonicated on high for 5 min (30 sec on, 30 sec off) using a Bioruptor UCD-200. […]
Compounds were tested from 100 μM – 1 nM. Values were calculated using Prism.

[4] = system: adult S. mansoni; set-up: method as in PMID 32973031; conditions: adult parasites; cited from earlier work
[5] = molecular target: S. mansoni p97 (Smp_018240) (Schistosoma mansoni, UniProt G4M0P7); type: biochemical; conditions: recombinant full-length enzyme, Kinase-Glo, 100 μM to 1 nM
Sequence of S. mansoni p97 (Smp_018240) (G4M0P7 entry or part of it): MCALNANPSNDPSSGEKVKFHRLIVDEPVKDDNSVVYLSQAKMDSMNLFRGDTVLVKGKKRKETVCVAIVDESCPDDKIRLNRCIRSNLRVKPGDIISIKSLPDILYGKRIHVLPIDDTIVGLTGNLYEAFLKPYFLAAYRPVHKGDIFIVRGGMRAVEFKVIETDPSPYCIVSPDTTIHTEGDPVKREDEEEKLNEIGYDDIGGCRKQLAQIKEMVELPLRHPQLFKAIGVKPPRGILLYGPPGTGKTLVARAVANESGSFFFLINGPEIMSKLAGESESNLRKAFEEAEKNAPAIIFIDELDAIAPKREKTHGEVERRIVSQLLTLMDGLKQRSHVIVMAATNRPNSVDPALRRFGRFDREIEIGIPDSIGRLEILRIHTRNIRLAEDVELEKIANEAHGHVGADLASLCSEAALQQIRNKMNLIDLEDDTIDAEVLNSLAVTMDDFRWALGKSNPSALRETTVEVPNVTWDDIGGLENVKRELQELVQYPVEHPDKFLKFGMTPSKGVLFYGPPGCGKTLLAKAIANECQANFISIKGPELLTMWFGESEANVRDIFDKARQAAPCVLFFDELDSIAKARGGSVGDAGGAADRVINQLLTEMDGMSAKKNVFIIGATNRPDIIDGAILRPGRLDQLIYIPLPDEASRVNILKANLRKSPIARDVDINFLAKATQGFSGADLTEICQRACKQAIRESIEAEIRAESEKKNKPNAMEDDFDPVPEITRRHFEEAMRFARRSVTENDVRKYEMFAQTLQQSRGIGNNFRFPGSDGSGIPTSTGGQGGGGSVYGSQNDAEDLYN
Experimental: Evaluation of p97’s ATPase activity and compound potency
For manual ATP consumption assays, 1 µM p97 was incubated with 1% DMSO or inhibitor (1% DMSO final) in assay buffer [50 mM Tris (pH 7.5), 20 mM MgCl2, 1 mM EDTA, 0.5 mM tris(2-carboxyethyl)phosphine (TCEP)] for 5 minutes prior to the addition of 20 µM ATP in a 384-well plate for a total reaction volume of 10 µL, and a final concentration of 500nM enzyme and 10 µM ATP. The reaction was allowed to proceed for 50 minutes at room temperature before adding equivalent volume of Kinase-Glo Plus reagent (Promega), and a further incubation of 10 minutes in the dark. Luminescence was read using a BioTek Synergy 2 plate reader […]
1 μM, 500 nM, 100 nM, 50 nM, 10 nM, 5 nM, 1 nM, and 0 nM) in triplicate, maintaining a concentration of 1% […]
were calculated using GraphPad Prism. […]

With Cc1cc2c(C(N)=O)cccc2n1-c1nc2c(c(NCc3ccccc3)n1)COCC2 [CB-5083] the GI50 ([1]; 50% growth inhibition normalized to time = 0) was 310 nM, the IC50 ([1]; 50% growth inhibition relative to control) was 410 nM and the “accumulation of K48 polyubiquitinated proteins by western blot” value [2] was “accumulation of proteins targeted for proteasome-mediated degradation”. For the same molecule, the EC50 ([3]; fraction of worms attached after 72 h drug treatment, refreshed every 24 h, kept until D5, 50 μM - 10 nM, read-out: S. mansoni EC50 (μM) on adult parasites) was 0.36 µM and the “concentration leading to parasite death in vitro” value [4] was “submicromolar concentrations”.

For Cc1cc(OCc2nnc(SC3CCCC3)n2-c2cccnc2)ccc1-c1ccc(S(C)(=O)=O)cc1 [NMS-873], the “accumulation of K48 polyubiquitinated proteins by western blot” value [2] is listed as “accumulation of proteins targeted for proteasome-mediated degradation”, the “concentration leading to parasite death in vitro” value [4] is listed as “submicromolar concentrations” and the IC50 [5] is listed as 230 ± 75 nM.

With AGI-41998 the EC50 ([3]; adult worms in vitro, tested 50 μM to 10 nM, readout attachment to culture substrate, read-out: EC50 of commercial inhibitors of human orthologs on adult parasites) was 0.71 µM.
